Results on 11 molecules are retold here after ChEMBL document CHEMBL1201862, “PubChem BioAssay data set” (2004).

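Values below derive from 48-hour exposures of cells grown in 96-well plates, with endpoints linearly interpolated between the two concentrations bracketing the appropriate inhibition level. Abbreviation: GI50, concentration required for 50% inhibition of growth.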 Calls of active or inactive are those of the source. Cut-off read from the data, not from the text of the source: active = GI50 up to about 1.1 µM and inactive = higher.

Holding throughout (experiment): NCI anticancer screen, dose series, 48 h
The subject of experiment [1] is HCT-15.
Experiment [2] has as its system PC-3.
Experiment [3] deals with LOX IMVI.
Experiment [4] has as its system MCF7.
Experiment [5] relates to K562.
Experiment [6] has as its system T47D.
For experiment [7], the system named is SF-295.
Experiment [8] concerns OVCAR-3.
In experiment [9] the test system is DU-145.
Experiment [10] concerns Hs-578T.
The subject of experiment [11] is HT-29.
Experiment [12] deals with SR.
Experiment [13] has as its system A549.
Experiment [14] deals with UACC-257.
In experiment [15] the test system is SF-268.
The subject of experiment [16] is NCI/ADR-RES.
The subject of experiment [17] is MDA-N.
For experiment [18], the system named is HCT-116.
Experiment [19] relates to HCC 2998.

For the molecule `c1cc(CNCCN2CCNCC2)ccn1`, the GI50 was greater than 100 µM in experiment [1]; > 100 µM (inactive) in experiment [2]; > 100 µM (inactive) in experiment [3]; > 100 µM (inactive) in experiment [4]; > 100 µM (inactive) in experiment [5]; > 100 µM (inactive) in experiment [6]. Besides, the GI50 in experiment [7], in experiment [8], in experiment [9], in experiment [10], in experiment [11] and in experiment [12] was > 100 µM (inactive) in each case. In addition, the GI50 in experiment [13], in [14], in experiment [15], in [16], in experiment [17] and in experiment [18] was > 100 µM (inactive) each time.

Consider `CC(=O)NCCCCN(CCCNC(C)=O)C(=O)CNS(=O)(=O)c1cccc2c(N(C)C)cccc12`, for which the GI50 in experiment [1] was greater than 100 µM; in [2], > 100 µM (inactive); in experiment [3], > 100 µM (inactive); in experiment [4] it was > 100 µM (inactive); in [19] it was > 100 µM (inactive); in experiment [5] it was > 100 µM (inactive). Further, the GI50 in experiment [6], in experiment [7], in experiment [8], in [9], in experiment [10] and in experiment [11] was > 100 µM (inactive) in each case. Also, the GI50 in experiment [12], in experiment [13], in [14], in experiment [15], in [17] and in [18] was > 100 µM (inactive) in each case.

`COC(=O)c1sc(=O)sc1SCc1cccc(CSc2sc(=O)sc2C(=O)OC)c1`: the GI50 in [1] was greater than 100 µM; in experiment [2], 29.2 µM (inactive); in experiment [3] it was > 100 µM (inactive); in [4], 9.33 µM (inactive); in experiment [19], 53.7 µM (inactive); in experiment [5] it was 43.3 µM (inactive). The GI50 in [6] was 38.9 µM (inactive); in experiment [7], 26.2 µM (inactive); in experiment [8] it was 23.9 µM (inactive); in [9], 92.3 µM (inactive); in experiment [10], 57.1 µM (inactive); in [11] it was > 100 µM (inactive). Besides, the GI50 in experiment [13] was 51.4 µM (inactive); in [14], 70.5 µM (inactive); in experiment [15], 27.3 µM (inactive); in experiment [16], 62.4 µM (inactive); in experiment [17], 68.9 µM (inactive); in experiment [18], 56.1 µM (inactive).

`Clc1ccc(/N=C/C=C/Nc2ccc(Cl)cn2)nc1`: the GI50 was 1.76 µM in experiment [1]; 14.5 µM (inactive) in [2]; 7.73 µM (inactive) in experiment [3]; 16.4 µM (inactive) in [4]; 7.66 µM (inactive) in experiment [5]; 18.3 µM (inactive) in experiment [6]. Further, the GI50 is 16.3 µM (inactive) in [7]; 13.5 µM (inactive) in [8]; 17.5 µM (inactive) in [9]; 5.14 µM (inactive) in experiment [10]; 7.8 µM (inactive) in experiment [11]; 2.78 µM (inactive) in experiment [12]. Besides, the GI50 in [13] was 14.5 µM (inactive); in experiment [14] it was 17.1 µM (inactive); in experiment [15] it was 16.4 µM (inactive); in experiment [16] it was 15.2 µM (inactive); in experiment [17], 15.1 µM (inactive); in [18] it was 12.2 µM (inactive).

As for `O=C(c1ccco1)N(C(=S)OCc1ccccn1)c1ccccc1`, the GI50 in experiment [1] is greater than 100 µM; in experiment [2], 59.8 µM (inactive); in [3] it was > 100 µM (inactive); in experiment [4], 75.3 µM (inactive); in experiment [5] it was 75.3 µM (inactive); in experiment [6], 25.1 µM (inactive). Moreover, the GI50 in [8] is > 100 µM (inactive); in experiment [9] it was > 100 µM (inactive); in experiment [10], > 100 µM (inactive); in experiment [11], > 100 µM (inactive); in experiment [12], 1.25 µM (inactive); in experiment [14], > 100 µM (inactive). The GI50 in [15] is > 100 µM (inactive); in experiment [16] it was 62.5 µM (inactive); in experiment [17], > 100 µM (inactive); in experiment [18] it was > 100 µM (inactive).

Turning to `OCC(O)COCn1nncc1Cn1ncc2c(SCc3ccccc3)ncnc21` (stereo not given), the GI50 in experiment [1] was greater than 100 µM; in [2], > 100 µM (inactive); in experiment [3], > 100 µM (inactive); in experiment [4], > 100 µM (inactive); in experiment [19] it was > 100 µM (inactive); in experiment [6], > 100 µM (inactive). Further, the GI50 in [7] was > 100 µM (inactive); in experiment [8], > 100 µM (inactive); in [9] it was > 100 µM (inactive); in [10], 0.203 µM (active); in experiment [11] it was > 100 µM (inactive); in experiment [13], > 100 µM (inactive). For the same molecule, the GI50 in experiment [14] is > 100 µM (inactive); in [15], 14.5 µM (inactive); in experiment [16], > 100 µM (inactive); in experiment [17] it was > 100 µM (inactive); in experiment [18], > 100 µM (inactive).

In the case of `O=[N+]([O-])c1ccc(SN=S=NSc2cccc(SN=S=NSc3ccc([N+](=O)[O-])cc3)c2)cc1`, the GI50 in experiment [1] is 17.7 µM; in experiment [2] it was 16.6 µM (inactive); in [3], 17.2 µM (inactive); in experiment [4], 24.6 µM (inactive); in [19], > 100 µM (inactive); in experiment [5] it was 25.2 µM (inactive). For the same molecule, the GI50 in [6] was 11.1 µM (inactive); in experiment [7] it was 44.3 µM (inactive); in [8], 62.1 µM (inactive); in experiment [10] it was 58.3 µM (inactive); in experiment [11] it was 33.2 µM (inactive); in experiment [12] it was 26.8 µM (inactive). The GI50 in experiment [13] was 46.5 µM (inactive); in experiment [14], 45.3 µM (inactive); in [15], 33 µM (inactive); in [16] it was 28 µM (inactive); in [17], 30.8 µM (inactive); in [18], 29.7 µM (inactive).

`O=C(O)c1cc(NC2=C(Cl)C(=O)c3c(O)ccc(O)c3C2=O)ccc1O`: the GI50 was greater than 10 µM in experiment [1]; > 10 µM (inactive) in [2]; > 10 µM (inactive) in experiment [3]; > 10 µM (inactive) in experiment [4]; > 10 µM (inactive) in [19]; > 10 µM (inactive) in [5]. For the same molecule, the GI50 in [6], in experiment [7], in experiment [8], in experiment [9], in [10] and in [11] was > 10 µM (inactive) each time. In addition, the GI50 in experiment [13], in [14], in experiment [15], in experiment [16], in experiment [17] and in [18] was > 10 µM (inactive) each time.

In the case of `COc1cc(C(=O)N(C)N(C)C)cc(OC)c1OC`, the GI50 in experiment [1] was greater than 10 µM; in experiment [2] it was > 10 µM (inactive); in [3], > 10 µM (inactive); in [4], > 10 µM (inactive); in [19] it was > 10 µM (inactive); in [5], > 10 µM (inactive). Moreover, the GI50 in experiment [6], in experiment [7], in experiment [8], in experiment [9], in [10] and in [11] was > 10 µM (inactive) in each case. For the same molecule, the GI50 in [13], in experiment [14], in experiment [15], in experiment [16], in experiment [17] and in experiment [18] was > 10 µM (inactive) in each case.

Consider `Cc1cc(Br)cc(C)c1NC(=O)C(=O)Nn1c(S)nc2ccccc2c1=O`, for which the GI50 is greater than 100 µM in experiment [1]; > 100 µM (inactive) in experiment [2]; > 100 µM (inactive) in experiment [3]; > 100 µM (inactive) in experiment [4]; > 100 µM (inactive) in [19]; > 100 µM (inactive) in experiment [5]. Also, the GI50 in experiment [6], in [7], in experiment [8], in experiment [10], in experiment [11] and in [12] was > 100 µM (inactive) each time. For the same molecule, the GI50 in experiment [13], in experiment [14], in experiment [15], in experiment [16], in [17] and in experiment [18] was > 100 µM (inactive) each time.

Take `COc1ccc2nc(N/N=C/c3sccc3C)cc(C)c2c1`: the GI50 in experiment [1] is 14.1 µM; in [2] it was 17.1 µM (inactive); in [3], 15.6 µM (inactive); in [4], 22.5 µM (inactive); in [19], 17.5 µM (inactive); in [5] it was 38 µM (inactive). Besides, the GI50 in experiment [6] is 42.9 µM (inactive); in [7], 7.23 µM (inactive); in experiment [8], 18.8 µM (inactive); in experiment [9], 19.4 µM (inactive); in experiment [10], 18.6 µM (inactive); in [11], 8.67 µM (inactive). For the same molecule, the GI50 is 20.5 µM (inactive) in [13]; 17 µM (inactive) in experiment [14]; 16.5 µM (inactive) in [15]; 21.6 µM (inactive) in experiment [16]; 16.5 µM (inactive) in [17]; 11.6 µM (inactive) in experiment [18].
